Reference: patent publication US10899628B2, “Cerium sulfate chelated sulfur dioxide, a preparation method and a use thereof” (South China Normal University, priority 2017, dated 2021)
Where two headings read alike, the source gives them in different places.

Assays:
[1] = background statement, cited from earlier work
[2] = thermogravimetric analysis (TGA); type: physicochemical
Protocol: It is known from the TGA curve that the weight loss between 30.5° C. and 150° C. corresponds to the content of crystal water in the chelated molecules.

[3] = solubility in water, aqueous DMSO and DMSO; type: physicochemical

Compound | solubility in a solution of a certain acidity ([1]; acidic solution) | solubility in water ([1]; water) | weight loss (crystal water) ([2]; between 30.5° C. and 150° C.) [%] | product remained in the final residue (thermal stability) ([2]; final residue) [%] | solubility in DMSO ([3]; DMSO) | solubility in about 4% aqueous solution of DMSO ([3]; about 4% aqueous solution of dimethyl sulfoxide) | solubility in water ([3]; water, standing for a period of time or heating under water bath of about 45 to 50° C.)
O=S(=O)([O-])[O-].O=S(=O)([O-])[O-].[Ce+4] [Anhydrous cerium sulfate, anhydrous cerium sulfate] | highly soluble | not highly soluble | – | – | – | – | –
cerium sulfate chelated sulfur dioxide | – | – | 11 | 72.51 | insoluble | soluble | forms an emulsion with water, and can dissolve after standing for a period of time or heating
